We go through 17 compounds from patent US7205296B2, “Substituted 2H-1,3-benzoxazin-4(3H)-ones” (Portola Pharmaceuticals, Inc., priority 2004, dated 2007).

The term IC50 denotes the concentration needed to halve the response being measured. Read a high IC50 as weaker potency.

Assay [1] concerns ADP-induced human platelet aggregation. Briefly: PRP assay: inhibition of ADP-mediated platelet aggregation in vitro. Format: cell-based. As to conditions: IC50 class. The method, then: I. Inhibition of ADP-Mediated Platelet Aggregation in vitro
The effect of testing the compound according to the invention on ADP-induced human platelet aggregation is preferably assessed in 96-well microtiter assay (see generally the procedures in Jantzen, H. M. et al. (1999) Thromb. Hemost. 81:111–117). Human venous blood is collected from healthy, drug-free volunteers into ACD (85 mM sodium citrate, 111 mM glucose, 71.4 mM citric acid) containing PGI2 (1.25 ml ACD containing 1.6 μM PGI2/10 ml blood; PGI2 was from Sigma, St. Louis, Mo.). Platelet-rich plasma (PRP) is prepared by centrifugation at 160×g for 20 minutes at room temperature. Washed platelets are prepared by centrifuging PRP for 10 minutes at 730×g and resuspending the platelet pellet in CGS (13 mM sodium citrate, 30 mM glucose, 120 mM NaCl; 2 ml CGS/10 ml original blood volume) containing 1 U/ml apyrase (grade V, Sigma, St. Louis, Mo.). After incubation at 37° C. for 15 minutes, the platelets are collected by centrifugation at 730×g for 10 minutes and resuspended at a concentration of 3×10^8 platelets/ml in Hepes-Tyrode's buffer (10 mM Hepes, 138 mM NaCl, 5.5 mM glucose, 2.9 mM KCl, 12 mM NaHCO3, pH 7.4) containing 0.1% bovine serum albumin, 1 mM CaCl2 and 1 mM MgCl2. This platelet suspension is kept >45 minutes at 37° C. before use in aggregation assays.
Inhibition of ADP-dependent aggregation is preferably determined in 96-well flat-bottom microtiter plates using a microtiter plate shaker and plate reader similar to the procedure described by Frantantoni et al., Am. J. Clin. Pathol. 94, 613 (1990). All steps are performed at room temperature. The total reaction volume of 0.2 ml/well includes in Hepes-Tyrodes buffer/0.1% BSA: 4.5×10^7 apyrase-washed platelets, 0.5 mg/ml human fibrinogen (American Diagnostica, Inc., Greenwich, Conn.), serial dilutions of test compounds (buffer for control wells) in 0.6% DMSO. After about 5 minutes preincubation at room temperature, ADP is added to a final concentration of 2 μM which induces submaximal aggregation. Buffer is added instead of ADP to one set of control wells (ADP^− control). The OD of the samples is then determined at 490 nm using a microtiter plate reader (Softmax, Molecular Devices, Menlo Park, Calif.) resulting in the 0 minute reading. The plates are then agitated for 5 min on a microtiter plate shaker and the 5 minute reading is obtained in the plate reader. Aggregation is calculated from the decrease of OD at 490 nm at t=5 minutes compared to t=0 minutes and is expressed as % of the decrease in the ADP control samples after correcting for changes in the unaggregated control samples.

Assay [2] addresses T1, platelet ADP receptors (Homo sapiens, UniProt Q9H244).
T1 construct: endogenous in cells; host or cells: whole apyrase-washed human platelets (outdated from blood banks, or fresh)
Briefly: ARB assay: inhibition of [3H]2-MeS-ADP binding to platelets. As to conditions: IC50 class, [3H]2-MeS-ADP binding to whole human platelets. The method, then:
II. Inhibition of [^3H]2-MeS-ADP Binding to Platelets
Utilizing the second assay the potency of inhibition of such compounds with respect to [^3H]2-MeS-ADP binding to whole platelets is determined. [^3H]2-MeS-ADP binding experiments are routinely performed with outdated human platelets collected by standard procedures at hospital blood banks. Apyrase-washed outdated platelets are prepared as follows (all steps at room temperature, if not indicated otherwise):
Outdated platelet suspensions are diluted with 1 volume of CGS and platelets pelleted by centrifugation at 1900×g for 45 minutes. Platelet pellets are resuspended at 3-6×10^9 platelets/ml in CGS containing 1 U/ml apyrase (grade V, Sigma, St. Louis, Mo.) and incubated for 15 minutes at 37° C. After centrifugation at 730×g for 20 minutes, pellets are resuspended in Hepes-Tyrode's buffer containing 0.1% BSA (Sigma, St. Louis, Mo.) at a concentration of 6.66×10^8 platelets/ml. Binding experiments are performed after >45 minutes resting of the platelets.
Alternatively, binding experiments are performed with fresh human platelets prepared as described in I. (Inhibition of ADP-Mediated Platelet Aggregation in vitro), except that platelets are resuspended in Hepes-Tyrode's buffer containing 0.1% BSA (Sigma, St. Louis, Mo.) at a concentration of 6.66×10^8 platelets/ml. Very similar results are obtained with fresh and outdated platelets.
A platelet ADP receptor binding assay using the tritiated potent agonist ligand [^3H]2-MeS-ADP (Jantzen, H. M. et al. (1999) Thromb. Hemost. 81:111–117) has been adapted to the 96-well microtiter format. In an assay volume of 0.2 ml Hepes-Tyrode's buffer with 0.1% BSA and 0.6% DMSO, 1×10^8 apyrase-washed platelets are preincubated in 96-well flat bottom microtiter plates for 5 minutes with serial dilutions of test compounds before addition of 1 nM [^3H]2-MeS-ADP ([^3H]2-methylthioadenosine-5′-diphosphate, ammonium salt; specific activity 48–49 Ci/mmole, obtained by custom synthesis from Amersham Life Science, Inc., Arlington Heights, Ill., or NEN Life Science Products, Boston, Mass.). Total binding is determined in the absence of test compounds. Samples for nonspecific binding may contain 10^−5 M unlabelled 2-MeS-ADP (RBI, Natick, Mass.). After incubation for 15 minutes at room temperature, unbound radioligand is separated by rapid filtration and two washes with cold (4–8° C.) Binding Wash Buffer (10 mM Hepes pH 7.4, 138 mM NaCl) using a 96-well cell harvester (Minidisc 96, Skatron Instruments, Sterling, Va.) and 8×12 GF/C glassfiber filtermats (Printed Filtermat A, for 1450 Microbeta, Wallac Inc., Gaithersburg, Md.). The platelet-bound radioactivity on the filtermats is determined in a scintillation counter (Microbeta 1450, Wallac Inc., Gaithersburg, Md.). Specific binding is determined by […] binding, and specific binding in the presence of test compounds is expressed as % of specific binding in the absence of test compounds dilutions.

T1 sequence (Q9H244 whole entry): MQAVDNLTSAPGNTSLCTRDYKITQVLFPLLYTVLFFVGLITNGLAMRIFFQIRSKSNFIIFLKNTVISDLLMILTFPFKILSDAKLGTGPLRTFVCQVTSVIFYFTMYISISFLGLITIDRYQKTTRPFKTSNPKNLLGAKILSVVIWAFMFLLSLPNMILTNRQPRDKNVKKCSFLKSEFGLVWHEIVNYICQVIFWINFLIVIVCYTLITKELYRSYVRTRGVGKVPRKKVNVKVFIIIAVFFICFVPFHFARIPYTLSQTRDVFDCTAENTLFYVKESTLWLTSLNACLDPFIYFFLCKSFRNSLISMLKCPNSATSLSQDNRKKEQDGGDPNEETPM

Take `CNc1cc2c(cc1F)C(=O)N(c1ccc(NC(=O)NS(=O)(=O)c3ccc(Cl)s3)cc1)CO2` [Example 5, 1-(5-chlorothiophen-2-ylsulfonyl)-3-(4-(6-fluoro-7-(methylamino)-4-oxo-2H-benzo[e][1,3]oxazin-3(4H)-yl)phenyl)urea]: the half-maximal inhibitory concentration (IC50) in assay [1] was < 10000 nM; in assay [2] it was < 50 nM.
`CNc1cc2c(cc1F)C(=O)N(c1ccc(NC(=O)NS(=O)(=O)c3ccc(Cl)s3)c(C)c1)CO2` [Example 10, 1-(5-chlorothiophen-2-ylsulfonyl)-3-(4-(6-fluoro-7-(methylamino)-4-oxo-2H-benzo [e][1,3]oxazin-3(4H)-yl)-2-methylphenyl)urea]: the IC50 lay in the range of 10000 to 30000 nM in assay [1] and 50 to 500 nM in assay [2].
Take `CNc1cc2c(cc1F)C(=O)N(c1ccc(NC(=O)NS(=O)(=O)c3ccc(Cl)s3)cc1OC)CO2` [Example 15, 1-(5-chlorothiophen-2-ylsulfonyl)-3-(4-(6-fluoro-7-(methylamino)-4-oxo-2H-benzo [e][1,3]oxazin-3(4H)-yl)-3-methoxyphenyl)urea]: the IC50 is < 10000 nM in assay [1] and < 50 nM in assay [2].
As for `CCOCCOc1cc(NC(=O)NS(=O)(=O)c2ccc(Cl)s2)ccc1N1COc2cc(NC)c(F)cc2C1=O` [Example 20, 1-(5-chlorothiophen-2-ylsulfonyl)-3-(3-(2-ethoxyethoxy)-4-(6-fluoro-7-(methylamino)-4-oxo-2H-benzo[e][1,3]oxazin-3(4H)-yl)phenyl)urea], the IC50 in assay [2] is > 500 nM.
As for `CNc1cc2c(cc1F)C(=O)N(c1ccc(NC(=O)NS(=O)(=O)c3ccc(Cl)s3)cc1OCCN(C)C)CO2` [Example 25, 1-(5-chlorothiophen-2-ylsulfonyl)-3-(3-(2-(dimethylamino)ethoxy)-4-(6-fluoro-7-(methylamino)-4-oxo-2H-benzo[e][1,3]oxazin-3(4H)-yl)phenyl)urea], the IC50 in assay [2] was > 500 nM.
Turning to `CNc1cc2c(cc1F)C(=O)N(c1cc(C)c(NC(=O)NS(=O)(=O)c3ccc(Cl)s3)c(C)c1)CO2` [Example 26, (5-chlorothiophen-2-ylsulfonyl)-3-(4-(6-fluoro-7-(methylamino)-4-oxo-2H-benzo[e][1,3]oxazin-3(4H)-yl)-2,6-dimethylphenyl)urea], the IC50 in assay [1] was < 10000 nM; in assay [2], < 50 nM.
Consider `CNc1cc2c(cc1F)C(=O)N(c1ccc(NC(=O)NS(=O)(=O)c3ccc(Cl)s3)c(OC)c1)CO2` [Example 27, 1-(5-chlorothiophen-2-ylsulfonyl)-3-(4-(6-fluoro-7-(methylamino)-4-oxo-2H-benzo[e][1,3]oxazin-3(4H)-yl)-2-methoxyphenyl)urea], for which the IC50 in assay [1] was > 30000 nM; in assay [2], < 50 nM.
Consider `CNc1cc2c(cc1F)C(=O)N(c1ccc(NC(=O)NS(=O)(=O)c3ccc(Cl)s3)c(OCCOC)c1)CO2` [Example 28, 1-(5-chlorothiophene-2-ylsulfonyl)-3-(4-(6-fluoro-7-(methylamino)-4-oxo-2H-benzo[e][1,3]oxazin-3(4H)-yl)-2-(2-methoxyethoxy)phenyl)urea], for which the IC50 in assay [1] is < 10000 nM; in assay [2] it was < 50 nM.
For `CNc1cc2c(cc1F)C(=O)N(c1ccc(NC(=O)NS(=O)(=O)c3ccc(Cl)s3)c(OCCN(C)C)c1)CO2` [Example 34], the IC50 in assay [1] lay within 10000 to 30000 nM; in assay [2], 50 to 500 nM.
The compound `CNc1cc2c(cc1F)C(=O)N(c1ccc(NC(=O)NS(=O)(=O)c3ccc(Cl)s3)c(C(=O)N(C)C)c1)CO2` [Example 37, 1-(5-chlorothiophen-2-ylsulfonyl)-3-(2-(dimethylcarbamoyl)-4-(6-fluoro-7-(methylamino)-4-oxo-2H-benzo[e][1,3]oxazin-3(4H)-yl)phenyl)urea] returned an IC50 in assay [2] of 50 to 500 nM.
Take `CNc1cc2c(cc1F)C(=O)N(c1ccc(NC(=O)NS(=O)(=O)c3ccc(Cl)s3)c(C(N)=O)c1)CO2` [Example 39, 1-(2-carbamoyl-4-(6-fluoro-7-(methylamino)-4-oxo-2H-benzo[e][1,3]oxazin-3(4H)-yl)phenyl)-3-(5-chlorothiophen-2-ylsulfonyl)urea]: the figures for the IC50 in assay [1] and in assay [2] were < 10000 nM and < 50 nM, respectively.
For `CNc1cc2c(cc1F)C(=O)N(c1ccc(NC(=O)NS(=O)(=O)c3ccc(Cl)s3)nc1)CO2` [Example 41, 1-(5-chlorothiophen-2-ylsulfonyl)-3-(5-(6-fluoro-7-(methylamino)-4-oxo-2H-benzo[e][1,3]oxazin-3(4H)-yl)pyridin-2-yl)urea], in that order: < 10000 nM and < 50 nM.
Regarding `CNc1cc2c(cc1F)C(=O)N(c1cnc(NC(=O)NS(=O)(=O)c3ccc(Cl)s3)c(C)c1)CO2` [Example 42, 1-(5-chlorothiophen-2-ylsulfonyl)-3-(5-(6-fluoro-7-(methylamino)-4-oxo-2H-benzo [e][1,3]oxazin-3(4H)-yl)-3-methylpyridin-2-yl)urea], the values for the IC50 in assay [1] and in assay [2] were < 10000 nM and < 50 nM, respectively.
`CNc1cc2c(cc1F)C(=O)N(c1ccc(NC(=O)NS(=O)(=O)c3ccc(C)s3)nc1)CO2` [Example 43]: the half-maximal inhibitory concentration (IC50) is < 10000 nM in assay [1] and < 50 nM in assay [2].
For `CNc1cc2c(cc1F)C(=O)N(c1ccc(NC(=O)NS(=O)(=O)c3ccc(OC)s3)nc1)CO2` [Example 44, 1-(5-(6-fluoro-7-(methylamino)-4-oxo-2H-benzo[e][1,3]oxazin-3(4H)-yl)pyridin-2-yl)-3-(5-methoxythiophen-2-ylsulfonyl)urea], in that order: > 30000 nM and 50 to 500 nM.
Take `CNc1cc2c(cc1F)C(=O)N(c1ccc(NC(=O)NS(=O)(=O)c3ccc(OC)s3)cc1)CO2` [Example 45]: the IC50 was > 30000 nM in assay [1] and < 50 nM in assay [2].
As for `CNc1cc2c(cc1F)C(=O)N(c1ccc(NC(=O)NS(=O)(=O)c3ccc(C)s3)cc1)CO2` [Example 46, 1-(4-(6-fluoro-7-(methylamino)-4-oxo-2H-benzo[e][1,3]oxazin-3(4H)-yl)-3-5-methylthiophen-2ylsulfonyl)urea], the IC50 in assay [1] is 10000 to 30000 nM; in assay [2], < 50 nM.
